Holding throughout (format): cell-based, human
In one test the test system is H441 p-ERK. Put plainly: Cell p-ERK assay (HTRF), NCI-H441 cells. The settings on record: NCI-H441 cells (KRAS G12V), 3 h incubation. The procedure:
(§1) The cells were digested with trypsin (containing EDTA), collected in their corresponding complete media, and counted. The density of the cell suspensions was adjusted with their corresponding complete media, and 10000 AsPC-1 cells or 20000 NCI-H441 cells per well were seeded into a 96-well cell culture plate, with the volume of the medium in each well being 80 µL. The cell culture plate was incubated in an incubator at 37 °C with 5% CO2 overnight. […] On the day after cell seeding, 20 µL of the 5× compound stock solution was added to each cell culture well. […] In addition to the compound-treated wells described above, cell-containing DMSO control wells were also set. A complete medium containing 0.5% DMSO was added at 20 µL/well. After the mixture was well mixed, the culture plate was incubated in the incubator at 37 °C with 5% CO2 for another 3 h. The medium was then removed from the culture wells, and 50 µL of cell lysis buffer (from Advance ERK phospho-T202/Y204 kit) was added to each well. The mixture was well mixed and incubated for 30 min. Then, 16 µL of the mixture was transferred to a white-bottomed, opaque 96-well assay plate, and separately, 16 µL of cell lysis buffer was added to additional wells (serving as blank wells) in the assay plate. After the transfer was completed, 4 µL of p-ERK HTRF antibody mixture (from Advance ERK phospho-T202/Y204 kit) was added to each well of the assay plate, followed by a 4-hour incubation. […] Using an XLfit software, the IR (%) values were plotted against the logarithm of the compound concentrations, and the dose-response curves were fitted using the four-parameter method to calculate the IC50 values.
In general terms: In TR-FRET formats the signal depends on donor and acceptor labels being close together.

For the next test, the system named is AsPC-1 p-ERK. Description: Cell p-ERK assay (HTRF), AsPC-1 cells. The protocol: as §1
A further test concerns NCI-H441 cells. Put plainly: 3D cell proliferation assay (CellTiter Glo-3D), NCI-H441. To be noted: NCI-H441 cells (KRAS G12V), 2% FBS, 5 days, read-out: H441 AP IC50. The protocol:
(§2) The cells were digested with trypsin (containing EDTA), collected in their respective low-serum complete media containing 2% FBS (for MIA Paca-2 cell culture: DMEM + 2% FBS + 0.5% Horse serum + 1% PS), and counted. After the cell density was adjusted as required, 200 MIA PaCa-2 cells, 800 AsPC-1 cells, 800 NCI-H441 cells, or 400 NCI-H1975 cells per well were seeded into a 384-well cell culture plate, with the volume of the medium in each well being 45 µL. The cell culture plate was incubated in an incubator at 37 °C with 5% CO2 overnight. […] On the day after cell seeding, 5 µL of the 10× compound stock solution was added to each cell culture well. […] In addition to the compound-treated wells described above, cell-containing DMSO control wells (with 5 µL of the complete medium containing 1% DMSO added to each well) and cell-free medium control wells (containing 50 µL of the complete medium with 2% FBS) were also set. The culture plate was incubated in an incubator at 37 °C with 5% CO2 for another 5 days, and then 30 µL of CellTiter-Glo working solution was added to each well. The mixture was well mixed, incubated for 30 min, left to stand at room temperature for 30 min, and then transferred to a white-bottomed, opaque 384-well assay plate at 40 µL/well. […] Using an XLfit software, the IR (%) values were plotted against the logarithm of the compound concentrations, and the dose-response curves were fitted using the four-parameter method to calculate the IC50 values.
In general terms: Cellular ATP, detected with luciferase, serves as a proxy for viable cell number.

A further test relates to AsPC-1 cells. Put plainly: 3D cell proliferation assay (CellTiter Glo-3D), AsPC-1. The protocol:
as §2

The mark [1] stands for this setting: Homo sapiens, ASPC1, 3 h, read-out: AsPC-1 p-ERK IC50(nM).
Where [2] appears, read: Homo sapiens, ASPC1, 120 h, read-out: AsPC-1 AP IC50(nM).
Setting [3] is: AsPC-1 cells (KRAS G12D), 3 h incubation, read-out: AsPC-1 p-ERK IC50.
Where [4] appears, read: AsPC-1 cells (KRAS G12D), 3D, 2% FBS, 5 days, read-out: AsPC-1 AP IC50.

This note sets out measurements from patent EP4775582A1, “MACROCYCLIC COMPOUND AND ANTIBODY-DRUG CONJUGATE THEREOF” (Genfleet Therapeutics (Shanghai) Inc., priority 2023, dated 2025).

Read-outs that look alike come from different tables or passages of the source.

Broadly, the IC50 is the concentration needed to halve the response being measured. With `CO[C@@H](C)c1ncc(C#CCN2CCN(C(=O)CN)CC2)cc1-c1c2c3cc(ccc3n1C(C)C)-c1csc(n1)C[C@H](NC(=O)[C@H]1[C@@H]3COC[C@@H]31)C(=O)N1CCC[C@H](N1)C(=O)OCC(C)(C)C2` (atropisomer, axis not shown; (Ra)) [Compound Z84, (1R,5S,6r)-N-((6^3S,4S,Z)-(Ra)-1^2-(5-(3-(4-glycylpiperazin-1-yl)prop-1-yn-1-yl)-2-((S)-1-methoxyethyl)pyridin-3-yl)-1^1-isopropyl-10,10-dimethyl-5,7-dioxo-6^1,6^2,6^3,6^4,6^5,6^6-hexahydro-1^1H-8-oxa-2(4,2)-thiazola-1(5,3)-indola-6(1,3)-pyridazinacycloundecaphane-4-yl)-3-oxabicyclo[3.1.0]hexane-6-carboxamide], the IC50 turned out to be 1.47 nM in the test with H441 p-ERK (Homo sapiens); 1.56 nM with AsPC-1 p-ERK (setting [1]); 3.02 nM in the test with NCI-H441 cells (Homo sapiens, 120 h); 2.7 nM in the test with AsPC-1 cells (setting [2]).

With “(6^3S,4S,Z)-(Sa)-1^2-(5-(3-(1,4-oxazepan-4-yl)prop-1-yn-1-yl)-2-((S)-1-methoxyethyl)pyridin-3-yl)-1^1-ethyl-10,10-dimethyl-4-((5-ethyl-5-methyl-4,5-dihydroisoxazol-3-yl)amino)-6^1,6^2,6^3,6^4,6^5,6^6-hexahydro-1^1H-8-oxa-2(4,2)-thiazola-1(5,3)-indola-6(1,3)-pyridazinacycloundecaphane-5,7-dione [Compound Z173-2]”, the 50% inhibitory concentration (IC50) was 0.81 nM with H441 p-ERK, 0.86 nM with AsPC-1 p-ERK (setting [3]), 1.82 nM in the test with NCI-H441 cells and 1.61 nM in the test with AsPC-1 cells (setting [4]).

As for `CCn1c(-c2cc(C#CCN3CCCOCC3)cnc2[C@H](C)OC)c2c3cc(ccc31)-c1csc(n1)C[C@H](NC1=NOC(CC)(CC)C1)C(=O)N1CCC[C@H](N1)C(=O)OCC(C)(C)C2` (atropisomer, axis not shown; (Ra)) [Compound Z279, (6^3S,4S,Z)-(Ra)-1^2-(5-(3-(1,4-oxazepan-4-yl)prop-1-yn-1-yl)-2-((S)-1-methoxyethyl)pyridin-3-yl)-1^1-ethyl-10,10-dimethyl-4-((5,5-diethyl-4,5-dihydroisoxazol-3-yl)amino)-6^1,6^2,6^3,6^4,6^5,6^6-hexahydro-1^1H-8-oxa-2(4,2)-thiazola-1(5,3)-indola-6(1,3)-pyridazinacycloundecaphane-5,7-dione], the half-maximal inhibitory concentration (IC50) in the test on H441 p-ERK (Homo sapiens) came to 1.03 nM; in the test with AsPC-1 p-ERK (setting [1]), 1.83 nM; in the test on NCI-H441 cells (Homo sapiens, 120 h) it was 3.26 nM; in the test on AsPC-1 cells (setting [2]), 6.05 nM.

Take `CCn1c(-c2cc(C#CCN3CCC(C#N)(CO)CC3)cnc2[C@H](C)OC)c2c3cc(ccc31)-c1csc(n1)C[C@H](NC(=O)[C@H]1[C@H](C)[C@@H]1C)C(=O)N1CCC[C@H](N1)C(=O)OCC(C)(C)C2` (atropisomer, axis not shown; (Ra)) [Compound Z23, (1r,2R,3S)-N-((6^3S,4S,Z)-(Ra)-1^2-(5-(3-(4-cyano-4-(hydroxymethyl)piperidin-1-yl)prop-1-yn-1-yl)-2-((S)-1-methoxyethyl)pyridin-3-yl)-1^1-ethyl-10,10-dimethyl-5,7-dioxo-6^1,6^2,6^3,6^4,6^5,6^6-hexahydro-1^1H-8-oxa-2(4,2)-thiazola-1(5,3)-indola-6(1,3)-pyridazinacycloundecaphane-4-yl)-2,3-dimethylcyclopropane-1-carboxamide]: the IC50 in the test on H441 p-ERK (Homo sapiens) was 0.1 nM; with AsPC-1 p-ERK (setting [1]), 0.08 nM; in the test on NCI-H441 cells (Homo sapiens, 120 h), 0.06 nM; with AsPC-1 cells (setting [2]) it was 0.03 nM.

In the case of `CCn1c(-c2cc(C#CCN3CCS(=O)(=O)CC3)cnc2[C@H](C)OC)c2c3cc(ccc31)-c1csc(n1)C[C@H](NC(=O)[C@@H](NC)C1CCCC1)C(=O)N1CCC[C@H](N1)C(=O)OCC(C)(C)C2` (atropisomer, axis not shown; (Ra)) [Compound Z15, (2S)-2-methylamino-2-cyclopentyl-N-((6^3S,4S,Z)-(Ra)-1^2-(5-(3-(1,1-dioxidothiomorpholino)prop-1-yn-1-yl)-2-((S)-1-methoxyethyl)pyridin-3-yl)-1^1-ethyl-10,10-dimethyl-5,7-dioxo-6^1,6^2,6^3,6^4,6^5,6^6-hexahydro-1^1H-8-oxa-2(4,2)-thiazola-1(5,3)-indola-6(1,3)-pyridazinacycloundecaphane-4-yl)acetamide], the IC50 turned out to be 0.24 nM in the test with H441 p-ERK (Homo sapiens); 0.42 nM in the test on AsPC-1 p-ERK (setting [1]); 0.35 nM with NCI-H441 cells (Homo sapiens, 120 h); 0.31 nM in the test with AsPC-1 cells (setting [2]).

In the case of `CO[C@@H](C)c1ncc(C#CCN2CCS(=O)(=O)CC2)cc1-c1c2c3cc(ccc3n1CC(C)O)-c1csc(n1)C[C@H](NC(=O)[C@H]1[C@H](C)[C@@H]1C)C(=O)N1CCC[C@H](N1)C(=O)OCC(C)(C)C2` (atropisomer, axis not shown; (Ra)) [Compound Z3, (1r,2R,3S)-N-((6^3S,4S,Z)-(Ra)-1^2-(5-(3-(1,1-dioxidothiomorpholino)prop-1-yn-1-yl)-2-((S)-1-methoxyethyl)pyridin-3-yl)-1^1-(2-hydroxypropyl)-10,10-dimethyl-5,7-dioxo-6,6',6',6^46^5,6^6-hexahydro-1^1H-8-oxa-2(4,2)-thiazola-1(5,3)-indola-6(1,3)-pyridazinacycloundecaphane-4-yl)-2,3-dimethylcyclopropane-1-carboxamide], the IC50 in the test with H441 p-ERK was found to be 0.72 nM; with AsPC-1 p-ERK (setting [3]) it was 0.59 nM; with NCI-H441 cells, 0.28 nM; in the test on AsPC-1 cells (setting [4]) it was 0.18 nM.

In the case of `CCn1c(-c2cc(C#CCN3CCC(C(=O)NCCO)CC3)cnc2[C@H](C)OC)c2c3cc(ccc31)-c1csc(n1)C[C@H](NC(=O)[C@H]1[C@H](C)[C@@H]1C)C(=O)N1CCC[C@H](N1)C(=O)OCC(C)(C)C2` (atropisomer, axis not shown; (Ra)) [Compound Z12], the IC50 stood at 0.15 nM in the test on H441 p-ERK (Homo sapiens); 0.36 nM in the test on AsPC-1 p-ERK (Homo sapiens, ASPC1, AsPC-1 cells (KRAS G12D), 3 h incubation, read-out: AsPC-1 p-ERK IC50); 0.21 nM in the test on NCI-H441 cells (Homo sapiens, 120 h); 0.44 nM in the test on AsPC-1 cells (Homo sapiens, ASPC1, 120 h, AsPC-1 cells (KRAS G12D), 3D, 2% FBS, 5 days, read-out: AsPC-1 AP IC50).

As to `CCn1c(-c2cc(C#CCN3CCCN(C(=O)CO)CC3)cnc2[C@H](C)OC)c2c3cc(ccc31)-c1csc(n1)C[C@H](NC(=O)[C@H]1[C@H](C)[C@@H]1C)C(=O)N1CCC[C@H](N1)C(=O)OCC(C)(C)C2` (atropisomer, axis not shown; (Ra)) [Compound Z10, (1r,2R,3S)-N-((6^3S,4S,Z)-1^1-ethyl-(Ra)-1^2-(5-(3-(4-(2-hydroxyacetyl)-1,4-diazepin-1-yl)prop-1-yn-1-yl)-2-((S)-1-methoxyethyl)pyridin-3-yl)-10,10-dimethyl-5,7-dioxo-6^1,6^2,6^3,6^4,6^5,6^6-hexahydro-1^1H-8-oxa-2(4,2)-thiazola-1(5,3)-indola-6(1,3)-pyridazinacycloundecaphane-4-yl)-2,3-dimethylcyclopropane-1-carboxamide], the IC50 in the test with H441 p-ERK (Homo sapiens) is 0.18 nM; in the test on AsPC-1 p-ERK (setting [1]), 0.12 nM; in the test with NCI-H441 cells (Homo sapiens, 120 h), 0.13 nM; with AsPC-1 cells (setting [2]) it was 0.16 nM.
